Values quoted from earlier work in PubChem BioAssay AID1259409 (Chemical Carcinogenesis Research Information System (CCRIS), 2018).

Test system: rodent chemically induced tumor inhibition, incidence and multiplicity
Assay: CCRIS tumor inhibitor studies

SMILES: COc1ccc2c(c1)c(CC(=O)O)c(C)n2C(=O)c1ccc(Cl)cc1
- tumour outcome (control, treated, inhibition, significance) (Carcinogen: METHYLAZOXYMETHANOL, 590-96-5, Dose [Inhibitor]: 7.5 MG/KG BW DAILY FOR 3 WK STARTING 27 WK AFTER THE START OF CARCINOGEN TREATMENT (STUDY DURATION: 30 WK), Route [Inhibitor]: INTRARECTAL, Species: RAT, Strain/Sex: DONRYU/MALE, Target Tissue: Type of Lesion: SMALL INTESTINE: ADENOCARCINOMA, Dose [Carcinogen]: 20 MG/KG BW 1/WK FOR 6 WK, Promoter: NONE USED): 10/23 (43%), 4/30 (13%), 70%, p<0.05
- tumour outcome (control, treated, inhibition, significance) (Carcinogen: N,N-DIETHYLNITROSAMINE, 55-18-5, Dose [Inhibitor]: 0.016 MG/ML IN DRINKING WATER 3/WK FOR 4 MO STARTING 4 MO AFTER THE START OF CARCINOGEN TREATMENT AND CONTINUING FOR DUR, Route [Inhibitor]: ORAL, Species: MOUSE, Strain/Sex: C57BL/MALE, Target Tissue: Type of Lesion: ESOPHAGUS: TUMOR, Dose [Carcinogen]: 0.04 ML/1000 ML DRINKING WATER DAILY FOR 30 D THEN EVERY SECOND WK TO COMPLETE 5 MO PERIOD, Promoter: NONE USED): 16/16 (100%), 19/19 (100%), 0%, not significant
- tumour outcome (control, treated, inhibition, significance) (Carcinogen: N,N-DIETHYLNITROSAMINE, 55-18-5, Dose [Inhibitor]: 0.016 MG/ML IN DRINKING WATER GIVEN TOGETHER WITH CARCINOGEN STARTING AT THE BEGINNING OF THE STUDY DAILY FOR 14 D AND 3, Route [Inhibitor]: ORAL, Species: MOUSE, Strain/Sex: C57BL/MALE, Target Tissue: Type of Lesion: ESOPHAGUS: TUMOR, Dose [Carcinogen]: 0.04 ML/1000 ML DRINKING WATER DAILY FOR 14 D THEN 3 D/WK FOR DURATION OF STUDY, Promoter: NONE USED): 24/24 (100%), 45/45 (100%), 0%, not significant
- tumour outcome (control, treated, inhibition, significance) (Carcinogen: N,N-DIETHYLNITROSAMINE, 55-18-5, Dose [Inhibitor]: 0.016 MG/ML IN DRINKING WATER GIVEN TOGETHER WITH CARCINOGEN STARTING AT THE BEGINNING OF THE STUDY DAILY FOR 30 D THEN, Route [Inhibitor]: ORAL, Species: MOUSE, Strain/Sex: C57BL/MALE, Target Tissue: Type of Lesion: ESOPHAGUS: TUMOR, Dose [Carcinogen]: 0.04 ML/1000 ML DRINKING WATER GIVEN TOGETHER WITH AGENT, Promoter: NONE USED): 8/8 (100%), 16/16 (100%), 0%, not significant
- tumour outcome (control, treated, inhibition, significance) (Carcinogen: N-BUTYL-N-(4-HYDROXYBUTYL)NITROSAMINE, 3817-11-6, Dose [Inhibitor]: 0, 7.5 MG/KG DIET BEGINNING 1 WK PRIOR TO CARCINOGEN TREATMENT AND CONTINUING FOR DURATION OF STUDY (STUDY DURATION: 187, Route [Inhibitor]: ORAL, Species: MOUSE, Strain/Sex: BDF/MALE, Target Tissue: Type of Lesion: URINARY BLADDER: TUMOR, Dose [Carcinogen]: 7.5 MG IN 0.1 ML OF ETHANOL:WATER (20:80) 1/WK FOR 8 WK, Promoter: NONE USED): 24%, 5%, 79%, p<0.05
- tumour outcome (control, treated, inhibition, significance) (Carcinogen: N-BUTYL-N-(4-HYDROXYBUTYL)NITROSAMINE, 3817-11-6, Dose [Inhibitor]: 0, 15 MG/KG DIET BEGINNING 1 WK PRIOR TO CARCINOGEN TREATMENT AND CONTINUING FOR DURATION OF STUDY (STUDY DURATION: 187, Route [Inhibitor]: ORAL, Species: MOUSE, Strain/Sex: BDF/MALE, Target Tissue: Type of Lesion: URINARY BLADDER: TUMOR, Dose [Carcinogen]: 7.5 MG IN 0.1 ML OF ETHANOL:WATER (20:80) 1/WK FOR 8 WK, Promoter: NONE USED): 24%, 0%, 100%, p<0.01
- tumour outcome (control, treated, inhibition, significance) (Carcinogen: N-BUTYL-N-(4-HYDROXYBUTYL)NITROSAMINE, 3817-11-6, Dose [Inhibitor]: 0, 20 PPM IN DRINKING WATER FOR 20 WK BEGINNING POST PROMOTER TREATMENT (STUDY DURATION: 44 WK), Route [Inhibitor]: ORAL, Species: RAT, Strain/Sex: F344/MALE, Target Tissue: Type of Lesion: URINARY BLADDER: PAPILLOMA, Dose [Carcinogen]: 0.05% IN DRINKING WATER FOR 4 WK, Promoter: BUTYLATED HYDROXYANISOLE, 25013-16-5): 6/15 (40%), 9/15 (60%), -50%, not significant
- tumour outcome (control, treated, inhibition, significance) (Carcinogen: N-BUTYL-N-(4-HYDROXYBUTYL)NITROSAMINE, 3817-11-6, Dose [Inhibitor]: 0, 20 PPM IN DRINKING WATER FOR 20 WK BEGINNING POST PROMOTER TREATMENT (STUDY DURATION: 44 WK), Route [Inhibitor]: ORAL, Species: RAT, Strain/Sex: F344/MALE, Target Tissue: Type of Lesion: URINARY BLADDER: PAPILLOMA, Dose [Carcinogen]: 0.05% IN DRINKING WATER FOR 4 WK, Promoter: SODIUM L-ASCORBATE, 134-03-2): 10/15 (67%), 10/15 (67%), 0%, not significant
- tumour outcome (control, treated, inhibition, significance) (Carcinogen: N-BUTYL-N-(4-HYDROXYBUTYL)NITROSAMINE, 3817-11-6, Dose [Inhibitor]: 0, 20 PPM IN DRINKING WATER FOR 20 WK BEGINNING POST PROMOTER TREATMENT (STUDY DURATION: 44 WK), Route [Inhibitor]: ORAL, Species: RAT, Strain/Sex: F344/MALE, Target Tissue: Type of Lesion: URINARY BLADDER: TRANSITIONAL CELL CARCINOMA, Dose [Carcinogen]: 0.05% IN DRINKING WATER FOR 4 WK, Promoter: BUTYLATED HYDROXYANISOLE, 25013-16-5): 3/15 (20%), 3/15 (20%), 0%, not significant
- tumour outcome (control, treated, inhibition, significance) (Carcinogen: N-BUTYL-N-(4-HYDROXYBUTYL)NITROSAMINE, 3817-11-6, Dose [Inhibitor]: 0, 20 PPM IN DRINKING WATER FOR 20 WK BEGINNING POST PROMOTER TREATMENT (STUDY DURATION: 44 WK), Route [Inhibitor]: ORAL, Species: RAT, Strain/Sex: F344/MALE, Target Tissue: Type of Lesion: URINARY BLADDER: TRANSITIONAL CELL CARCINOMA, Dose [Carcinogen]: 0.05% IN DRINKING WATER FOR 4 WK, Promoter: SODIUM L-ASCORBATE, 134-03-2): 6/15 (40%), 2/15 (13%), 67%, not significant
